Key:
h5-HT transporter = molecular target: T1, h5-HT transporter (Homo sapiens, UniProt P31645); assay: Radioligand binding experiment for 5-HT transporter ([3H]paroxetine); settings: human platelet membranes, [3H]paroxetine 0.5 nM
T1 construct: Human platelet membranes (Oceanix Biosciences Corporation, Hanover, Md., USA) were thawed; tissue Oceanix Biosciences Corporation, Hanover, Md., USA; host or cells: human platelet membranes
Method: In general, a low concentration of a radioligand with a high binding affinity for a particular receptor or transporter is incubated with a sample of a tissue preparation enriched in a particular receptor or transporter or with a preparation of cells expressing cloned human receptors in a buffered medium. During the incubation, the radioligand binds to the receptor or transporter. When equilibrium of binding is reached, the receptor bound radioactivity is separated from the non-bound radioactivity, and the receptor- or transporter-bound activity is counted. The interaction of the test compounds with the receptor is assessed in competition binding experiments. Various concentrations of the test compound are added to the incubation mixture containing the receptor- or transporter preparation and the radioligand. The test compound in proportion to its binding affinity and its concentration inhibits binding of the radioligand. The radioligand used for hα2A, hα2B and hα2C receptor binding was [^3H]-raulwolscine and for the h5-HT transporter was [^3H]paroxetine. Human platelet membranes (Oceanix Biosciences Corporation, Hanover, Md., USA) were thawed, diluted in buffer (Tris-HCl 50 mM, 120 mM NaCl and 5 mM KCl) and quickly (max 3 s) homogenised with an Ultraturrax homogenizer. In a total volume of 250 μL, 50-100 μg protein was incubated with [^3H]paroxetine (NET-869) (New England Nuclear, USA) (0.5 nM final concentration) with or without competitor for 60 min at 25 ° C. Incubation was stopped by rapid filtration of the incubation mixture over GF/B filters, pre-wetted with 0.1% polyethyleneamine, using a Filtermate196 harvester (Packard, Meriden, Conn.). Filters were rinsed extensively with ice-cold buffer and radioactivity on the filters was counted in a Topcount liquid scintillation counter (Packard, Meriden, Conn.). Data were expressed as cpm. Imipramine (at 1 μM final concentration) was used to determine the non-specific binding. Data from assays in the presence of compound were calculated as a percentage of total binding measured in the absence of test compound. Inhibition curves, plotting percent of total binding versus the log value of the concentration of the test compound, were automatically generated, and sigmoidal inhibition curves were fitted using non-linear regression. The pIC50 values of test compounds were derived from individual curves.

hα2B receptor = molecular target: T2, hα2B receptor (Homo sapiens, UniProt P18089); assay: Radioligand binding experiment for α2B-adrenergic receptor ([3H]-raulwolscine); settings: hα2B (pIC50), CHO cell membranes with human α2B receptor, [3H]raulwolscine 1 nM
T2 construct: expressed in transfected cells
T2 sequence (P18089 1-450): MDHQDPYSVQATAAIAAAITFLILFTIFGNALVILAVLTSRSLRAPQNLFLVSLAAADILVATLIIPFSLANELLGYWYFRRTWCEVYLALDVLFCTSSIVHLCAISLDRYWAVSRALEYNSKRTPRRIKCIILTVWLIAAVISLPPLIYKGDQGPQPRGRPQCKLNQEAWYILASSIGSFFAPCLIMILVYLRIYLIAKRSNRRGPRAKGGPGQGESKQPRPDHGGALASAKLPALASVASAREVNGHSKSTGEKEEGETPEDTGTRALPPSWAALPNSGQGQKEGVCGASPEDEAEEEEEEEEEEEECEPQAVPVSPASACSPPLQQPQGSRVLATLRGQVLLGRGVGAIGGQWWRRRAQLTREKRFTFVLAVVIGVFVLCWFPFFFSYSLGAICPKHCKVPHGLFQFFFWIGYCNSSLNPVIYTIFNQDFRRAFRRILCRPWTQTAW
Method: (§1) In general, a low concentration of a radioligand with a high binding affinity for a particular receptor or transporter is incubated with a sample of a tissue preparation enriched in a particular receptor or transporter or with a preparation of cells expressing cloned human receptors in a buffered medium. During the incubation, the radioligand binds to the receptor or transporter. When equilibrium of binding is reached, the receptor bound radioactivity is separated from the non-bound radioactivity, and the receptor- or transporter-bound activity is counted. The interaction of the test compounds with the receptor is assessed in competition binding experiments. Various concentrations of the test compound are added to the incubation mixture containing the receptor- or transporter preparation and the radioligand. The test compound in proportion to its binding affinity and its concentration inhibits binding of the radioligand. The radioligand used for hα2A, hα2B and hα2C receptor binding was [^3H]-raulwolscine and for the h5-HT transporter was [^3H]paroxetine. CHO cells, stabile transfected with human adrenergic-α2A-, -α2B or α2C receptor cDNA, were cultured in Dulbecco's Modified Eagle's Medium (DMEM)/Nutrient mixture Ham's F12 (ratio 1:1)(Gibco, Gent-Belgium) supplemented with 10% heat inactivated fetal calf serum (Life Technologies, Merelbeke-Belgium) and antibiotics (100 IU/ml penicillin G, 100 μg/ml streptomycin sulphate, 110 μg/ml pyruvic acid and 100 μg/ml L-glutamine). One day before collection, cells were induced with 5 mM sodiumbutyrate. Upon 80-90% of confluence, cells were scraped in phosphate buffered saline without Ca^2+ and Mg^2+ and collected by centrifugation at 1500×g for 10 min. The cells were homogenised in Tris-HCl 50 mM using an Ultraturrax homogenizer and centrifuged for 10 min at 23,500×g. The pellet was washed once by resuspension and rehomogenization and the final pellet was resuspended in Tris-HCl, divided in 1 ml aliquots and stored at −70° C. Membranes were thawed and re-homogenized in incubation buffer (glycylglycine 25 mM, pH 8.0). In a total volume of 500 μl, 2-10 μg protein was incubated with [^3H]raulwolscine (NET-722) (New England Nuclear, USA) (1 nM final concentration) with or without competitor for 60 min at 25° C. followed by rapid filtration over GF/B filter using a Filtermate196 harvester (Packard, Meriden, Conn.). Filters were rinsed extensively with ice-cold rinsing buffer (Tris-HCl 50 mM pH 7.4). Filter-bound radioactivity was determined by scintillation counting in a Topcount (Packard, Meriden, Conn.) and results were expressed as counts per minute (cpm). Non-specific binding was determined in the presence of 1 μM oxymetazoline for hα2A- and hα2B receptors and 1 μM spiroxatrine for hα2C receptors. Data from assays in the presence of compound were calculated as a percentage of total binding measured in the absence of test compound. Inhibition curves, plotting percent of total binding versus the log value of the concentration of the test compound, were automatically generated, and sigmoidal inhibition curves were fitted using non-linear regression. The pIC50 values of test compounds were derived from individual curves.

hα2C receptor = molecular target: T3, hα2C receptor (Homo sapiens, UniProt P18825); assay: Radioligand binding experiment for α2C-adrenergic receptor ([3H]-raulwolscine); settings: hα2C (pIC50), CHO cell membranes with human α2C receptor, [3H]raulwolscine 1 nM
T3 construct: expressed in transfected cells
T3 sequence (P18825 1-462): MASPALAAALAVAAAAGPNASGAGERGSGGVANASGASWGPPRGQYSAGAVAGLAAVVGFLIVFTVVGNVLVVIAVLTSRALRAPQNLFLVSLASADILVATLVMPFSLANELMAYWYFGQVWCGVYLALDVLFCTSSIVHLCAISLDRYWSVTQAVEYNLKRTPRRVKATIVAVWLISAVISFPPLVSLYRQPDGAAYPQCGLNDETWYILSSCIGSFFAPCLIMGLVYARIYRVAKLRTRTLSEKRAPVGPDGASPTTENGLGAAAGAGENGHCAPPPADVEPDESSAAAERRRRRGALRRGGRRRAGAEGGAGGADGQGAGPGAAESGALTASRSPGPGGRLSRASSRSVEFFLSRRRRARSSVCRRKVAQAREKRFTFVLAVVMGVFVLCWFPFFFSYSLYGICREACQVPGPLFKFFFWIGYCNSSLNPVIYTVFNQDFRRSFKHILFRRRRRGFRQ
Method: as §1

hα2A receptor = molecular target: T4, hα2A receptor (Homo sapiens, UniProt P08913); assay: Radioligand binding experiment for α2A-adrenergic receptor ([3H]-raulwolscine); settings: hα2A (pIC50), CHO cell membranes with human α2A receptor, [3H]raulwolscine 1 nM
T4 construct: expressed in transfected cells
T4 sequence (P08913 1-465): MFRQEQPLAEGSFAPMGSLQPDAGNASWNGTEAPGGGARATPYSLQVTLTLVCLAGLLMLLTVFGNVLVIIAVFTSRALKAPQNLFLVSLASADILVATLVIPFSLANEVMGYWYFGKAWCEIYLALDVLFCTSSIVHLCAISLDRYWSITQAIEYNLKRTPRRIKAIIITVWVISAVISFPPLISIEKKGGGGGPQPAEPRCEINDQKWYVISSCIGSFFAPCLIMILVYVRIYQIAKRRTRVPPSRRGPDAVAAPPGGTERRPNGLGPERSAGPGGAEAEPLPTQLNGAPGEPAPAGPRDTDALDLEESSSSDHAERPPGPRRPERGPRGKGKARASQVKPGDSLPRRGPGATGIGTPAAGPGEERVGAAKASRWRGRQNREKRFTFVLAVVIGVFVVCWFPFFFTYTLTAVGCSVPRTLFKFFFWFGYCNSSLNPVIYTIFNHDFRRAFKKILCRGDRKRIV
Method: as §1

T1 sequence (P31645 whole entry): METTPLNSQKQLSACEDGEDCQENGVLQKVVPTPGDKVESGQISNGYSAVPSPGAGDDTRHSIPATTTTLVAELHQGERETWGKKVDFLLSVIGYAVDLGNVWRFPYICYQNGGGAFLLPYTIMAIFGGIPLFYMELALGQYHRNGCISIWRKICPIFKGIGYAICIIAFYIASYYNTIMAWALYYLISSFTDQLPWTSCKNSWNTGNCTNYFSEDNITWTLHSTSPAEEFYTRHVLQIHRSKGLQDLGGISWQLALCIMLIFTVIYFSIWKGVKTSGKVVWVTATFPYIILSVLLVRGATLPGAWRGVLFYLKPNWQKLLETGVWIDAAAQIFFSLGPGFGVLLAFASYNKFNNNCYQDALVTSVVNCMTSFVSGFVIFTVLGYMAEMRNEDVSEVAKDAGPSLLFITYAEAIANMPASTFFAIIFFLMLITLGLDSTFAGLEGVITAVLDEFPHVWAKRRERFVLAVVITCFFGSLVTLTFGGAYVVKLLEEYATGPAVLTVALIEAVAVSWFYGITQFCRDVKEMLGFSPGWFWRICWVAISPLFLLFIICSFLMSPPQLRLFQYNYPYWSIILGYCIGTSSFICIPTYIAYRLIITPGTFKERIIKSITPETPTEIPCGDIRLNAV

C/C(=C\c1ccccc1)CN1CCN(CC2ON=C3c4cc5ccn(CCO)c5cc4OCC32)CC1 (single isomer, unassigned) [Compound 16, A-2-{3-[4-(2-methyl-3-phenyl-allyl)-piperazin-1-ylmethyl]-3a,4-dihydro-3H-2,5-dioxa-1,7-diaza-dicyclopenta[a,g]naphthalen7-yl}-ethanol]
5-HTT (pIC50) (h5-HT transporter): 6.3
IC50 (hα2B receptor): 20 nM
melting point: 167.9 to 170.2 °C
IC50 (hα2C receptor): 50.1 nM
IC50 (hα2A receptor): 316 nM

Source: patent US7501418B2, “Fused heterocyclic isoxazoline derivatives and their use as anti-depressants” (Janssen Pharmaceutica, N.V., priority 2002, dated 2009)
